In this assay the test system is P388 leukemia ip, CD2F1 mice, survival T/C. Nature of the assay: NCI In Vivo Anticancer Drug Screen. Data for tumor model P388 Leukemia (intraperitoneal) in CD2F1 (CDF1) mice. Particulars: endpoint: median survival time, higher = longer survival. The method, boiled down: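 Mice carrying the transplanted tumor received test compound or vehicle. Survival was recorded in each group, and the value is the treated-group measurement divided by that of the vehicle-treated control group.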

Where [1] appears, read: dose: 50.0 mg/kg/injection, schedule: Q01DX005 (ip), vehicle: Klucel (hydroxypropylcellulose) (HPC).
Setting [2] is: dose: 100.0 mg/kg/injection, schedule: Q01DX005 (ip), vehicle: Klucel (hydroxypropylcellulose) (HPC).
The mark [3] stands for this setting: dose: 200.0 mg/kg/injection, schedule: Q01DX005 (ip), vehicle: Klucel (hydroxypropylcellulose) (HPC).
Where [4] appears, read: dose: 25.0 mg/kg/injection, schedule: Q01DX009 (ip), vehicle: saline with Tween-80.
Setting [5] is: dose: 60.0 mg/kg/injection, schedule: Q01DX005 (ip), vehicle: saline with Tween-80.
The mark [6] stands for this setting: dose: 120.0 mg/kg/injection, schedule: Q01DX005 (ip), vehicle: saline with Tween-80.
Where [7] appears, read: dose: 240.0 mg/kg/injection, schedule: Q01DX005 (ip), vehicle: saline with Tween-80.
[8] abbreviates: dose: 50.0 mg/kg/injection, schedule: Q01DX005 (ip), vehicle: saline with Tween-80.

Consider 21 compounds from PubChem BioAssay AID330 (DTP/NCI, 2004).

Several values for one entry are separate records, joined by “and”; a condition that tells them apart may be missing. Identical values can stand only once. Toxic doses and inconclusive results are not listed. Numbered stars: 1 amine (or outer) side, 2 acyl side, 3 side chain; on linkers, the order of the positions; unused ones are H or OH. Square brackets hold non-standard residues; d marks the D form. Peptide text beside a SMILES is read from it. * marks the point of attachment. X18 = CCC(=O)CC1CC(C)CC(C(=O)[*:2])N1[*:1]; X17 = CCCCCCCCC(C)C(=O)*; Aib = CC(C)(N)C(=O)O; X19 = CC(CN(C)CCO)N*

As for `C=CC1(C)CCC2C(=CCC3C2(C)CC(O)C(O)C3(C)COC2OC(C(=O)O)C(O)C(O)C2O)C1` (stereo unspecified) (tested in a mixture with another compound), the T/C runs as follows: (dose: 12.5 mg/kg/injection, schedule: Q01DX009 (ip), vehicle: Klucel (hydroxypropylcellulose) (HPC)) 103 % of control; (dose: 25.0 mg/kg/injection, schedule: Q01DX009 (ip), vehicle: Klucel (hydroxypropylcellulose) (HPC)) 100 % of control; (dose: 50.0 mg/kg/injection, schedule: Q01DX009 (ip), vehicle: Klucel (hydroxypropylcellulose) (HPC)) 106 % of control; (dose: 100.0 mg/kg/injection, schedule: Q01DX009 (ip), vehicle: Klucel (hydroxypropylcellulose) (HPC)) 100 % of control.

As for `NCC1=NCCN1`, the T/C (dose: 60.0 mg/kg/injection, schedule: Q01DX005 (ip), vehicle: saline) was 92 % of control; the T/C (dose: 120.0 mg/kg/injection, schedule: Q01DX005 (ip), vehicle: saline) was 99 % of control; the T/C (dose: 240.0 mg/kg/injection, schedule: Q01DX005 (ip), vehicle: saline) was 94 % of control.

Take `COc1ccc2cc1Oc1ccc(cc1)CC1c3cc(OC)c(OC)c(c3CCN1C)Oc1c(O)c(OC)cc3c1C(C2)N(C)CC3` (stereo unspecified): the T/C reads like this: (dose: 20.0 mg/kg/injection, schedule: Q01DX009 (ip), vehicle: Klucel (hydroxypropylcellulose) (HPC)) 109 % of control; (dose: 40.0 mg/kg/injection, schedule: Q01DX009 (ip), vehicle: Klucel (hydroxypropylcellulose) (HPC)) 108 % of control; (dose: 80.0 mg/kg/injection, schedule: Q01DX009 (ip), vehicle: Klucel (hydroxypropylcellulose) (HPC)) 101 % of control; (dose: 160.0 mg/kg/injection, schedule: Q01DX009 (ip), vehicle: Klucel (hydroxypropylcellulose) (HPC)) 113 % of control.

As for `CC1NC(=O)NC(=O)C1=S` (stereo unspecified), the T/C reads like this: under setting [1], 112 % of control; under setting [2], 111 % of control; under setting [3], 113 % of control.

For `O=c1[nH]c2cc(Cl)ccc2c(CCl)c1Cl`, the T/C by setting is: under setting [4], 110 % of control; (dose: 50.0 mg/kg/injection, schedule: Q01DX009 (ip), vehicle: saline with Tween-80) 110 % of control.

In the case of `CCN1/C(=C/C=C/C=C\C=C\c2sc3ccc4ccccc4c3[n+]2CC)Sc2ccc3ccccc3c21`, the T/C (dose: 1.56 mg/kg/injection, schedule: Q04DX002 (ip), vehicle: saline with Tween-80) was 153 % of control and 168 % of control; the T/C (dose: 3.12 mg/kg/injection, schedule: Q04DX002 (ip), vehicle: saline with Tween-80) was 166 % of control; the T/C (dose: 6.25 mg/kg/injection, schedule: Q04DX002 (ip), vehicle: saline with Tween-80) is 156 % of control and 171 % of control; the T/C (dose: 12.5 mg/kg/injection, schedule: Q04DX002 (ip), vehicle: saline with Tween-80) was 159 % of control and 171 % of control and 186 % of control.

As to `NC(=O)CC1=Cc2c(ccc3ccc(O)cc23)C1`, the T/C is 97 % of control (dose: 12.5 mg/kg/injection, schedule: Q01DX009 (ip), vehicle: distilled water + Tween-80); 91 % of control (dose: 25.0 mg/kg/injection, schedule: Q01DX009 (ip), vehicle: distilled water + Tween-80); 102 % of control (dose: 50.0 mg/kg/injection, schedule: Q01DX009 (ip), vehicle: distilled water + Tween-80); 93 % of control (dose: 100.0 mg/kg/injection, schedule: Q01DX009 (ip), vehicle: distilled water + Tween-80); 90 % of control (dose: 200.0 mg/kg/injection, schedule: Q01DX009 (ip), vehicle: distilled water + Tween-80).

For the compound `CC12CCC(=O)N1c1ccccc1N2` (stereo unspecified), the T/C by setting is: under setting [5], 98 % of control; under setting [6], 94 % of control; under setting [7], 102 % of control.

`CC(=O)OCC1OC(n2cnc3c(Cl)nc(Cl)nc32)C(OC(C)=O)C1OC(C)=O` (stereo unspecified): the T/C by setting is: under setting [1], 102 % of control; under setting [2], 102 % of control; under setting [3], 115 % of control.

As for `FC(F)(F)Sc1c(SC(F)(F)F)c(SC(F)(F)F)n(-n2c(SC(F)(F)F)c(SC(F)(F)F)c(SC(F)(F)F)c2SC(F)(F)F)c1SC(F)(F)F`, the T/C (dose: 15.0 mg/kg/injection, schedule: Q01DX005 (ip), vehicle: Klucel (hydroxypropylcellulose) (HPC)) is 104 % of control; the T/C (dose: 30.0 mg/kg/injection, schedule: Q01DX005 (ip), vehicle: Klucel (hydroxypropylcellulose) (HPC)) is 106 % of control; the T/C (dose: 60.0 mg/kg/injection, schedule: Q01DX005 (ip), vehicle: Klucel (hydroxypropylcellulose) (HPC)) is 103 % of control and 97 % of control.

Turning to `CCCCCCCCC(C)C(=O)N1CCCC1C(=O)N1C(CC(=O)CC)CC(C)CC1C(=O)NC(C)C(=O)NC(C)(C)C(=O)NC(C)(C)C(=O)NC(C(=O)NC(C)C(=O)NC(C)(C)C(=O)NC(C)(C)C(=O)NC(C)CN(C)CCO)C(C)CC` (stereo unspecified) (X17-P[X18]A[Aib][Aib]IA[Aib][Aib]-X19; configuration not given here), the T/C by setting is: (dose: 0.62 mg/kg/injection, schedule: Q01DX009 (ip), vehicle: Klucel (hydroxypropylcellulose) (HPC)) 120 % of control; (dose: 1.25 mg/kg/injection, schedule: Q01DX009 (ip), vehicle: Klucel (hydroxypropylcellulose) (HPC)) 118 % of control; (dose: 2.5 mg/kg/injection, schedule: Q01DX009 (ip), vehicle: Klucel (hydroxypropylcellulose) (HPC)) 110 % of control.

On to `NC(=O)C1C2C=CC(O2)C1C(=O)O` (stereo unspecified), for which the T/C (dose: 7.5 mg/kg/injection, schedule: Q01DX005 (ip), vehicle: saline) is 100 % of control; the T/C (dose: 15.0 mg/kg/injection, schedule: Q01DX005 (ip), vehicle: saline) is 104 % of control; the T/C (dose: 30.0 mg/kg/injection, schedule: Q01DX005 (ip), vehicle: saline) is 104 % of control.

With `CN1C(c2ccccc2Cl)C2CCCC(C2O)C1c1ccccc1Cl` (stereo unspecified), the T/C (dose: 100.0 mg/kg/injection, schedule: Q04DX003 (ip), vehicle: saline) is 100 % of control; the T/C (dose: 200.0 mg/kg/injection, schedule: Q04DX003 (ip), vehicle: saline) is 100 % of control; the T/C (dose: 400.0 mg/kg/injection, schedule: Q04DX003 (ip), vehicle: saline) was 95 % of control.

With `COc1ccc(S(=O)(=O)F)cc1C(=O)O`, the T/C reads like this: under setting [5], 114 % of control; under setting [6], 112 % of control; under setting [7], 104 % of control.

As to `CCO/C(=N/S(C)(=O)=O)NO`, the T/C under setting [1] was 102 % of control, the T/C under setting [2] is 106 % of control and the T/C under setting [3] is 102 % of control.

For the compound `O=[N+]([O-])c1nc(Br)n[nH]1`, the T/C (dose: 100.0 mg/kg/injection, schedule: Q04DX002 (ip), vehicle: water) was 107 % of control and the T/C (dose: 200.0 mg/kg/injection, schedule: Q04DX002 (ip), vehicle: water) was 106 % of control.

As for `O=C1CSC(c2ccco2)N1CCN1C(=O)CSC1c1ccco1` (stereo unspecified), the T/C (dose: 100.0 mg/kg/injection, schedule: Q04DX002 (ip), vehicle: saline with Tween-80) was 100 % of control; the T/C (dose: 200.0 mg/kg/injection, schedule: Q04DX002 (ip), vehicle: saline with Tween-80) was 98 % of control; the T/C (dose: 400.0 mg/kg/injection, schedule: Q04DX002 (ip), vehicle: saline with Tween-80) was 91 % of control.

For the compound `O=C(Nc1ccc(F)cc1)N1CCCCC1`, the T/C runs as follows: under setting [5], 91 % of control; under setting [6], 99 % of control; under setting [7], 97 % of control.

Take `Cc1nn(C(=O)c2cccnc2)c(-c2ccccc2)c1N=Nc1ccc(S(=O)(=O)N=C(N)N)cc1`: the T/C is 98 % of control (dose: 3.12 mg/kg/injection, schedule: Q01DX005 (ip), vehicle: saline with Tween-80); 95 % of control (dose: 6.25 mg/kg/injection, schedule: Q01DX005 (ip), vehicle: saline with Tween-80); 105 % of control and 86 % of control (dose: 12.5 mg/kg/injection, schedule: Q01DX005 (ip), vehicle: saline with Tween-80); 89 % of control under setting [8].

For the compound `COc1ccc(/C(CC2(O)C(=O)Nc3c(C)cc(Cl)cc32)=N\NC(=O)C(=O)NN)cc1` (stereo unspecified), the T/C was 106 % of control under setting [8]; 98 % of control (dose: 100.0 mg/kg/injection, schedule: Q01DX005 (ip), vehicle: saline with Tween-80); 96 % of control (dose: 200.0 mg/kg/injection, schedule: Q01DX005 (ip), vehicle: saline with Tween-80).

On to `CCOC(=O)C[N+]12CCC34c5ccccc5N5C(=O)CC6OCC=C(C1)C(CC32)C6C54` (stereo unspecified), for which the T/C is 113 % of control (dose: 12.5 mg/kg/injection, schedule: Q01DX009 (ip), vehicle: saline with Tween-80) and 106 % of control under setting [4].
